Results as given in patent publication US20240173333A1, “Treating Alagille Syndrome (ALGS)” (priority 2022, published 2024).
Where “and” joins values, the source holds several entries; their conditions need not be identical. Equal values may be shown once. Entries after “also recorded” stand apart in the source; their conditions may differ. Read-outs that look alike come from different tables or passages of the source.

Columns and labels:
[1] = system: patients with Alagille syndrome (ALGS); experiment: ASSERT: safety, treatment-emergent adverse events; format: in vivo, human
Text: Safety. The primary safety analysis for this study included the incidence of total treatment-emergent adverse events (AEs) and treatment-emergent adverse events (TEAEs) categorized by causality, severity, and seriousness assessments made by the investigator by comparing study drug exposure to placebo. Other safety assessments included physical examinations, concomitant medications, vital signs, laboratory tests, and liver ultrasound and elastography.

[2] = system: pediatric patient with genetic confirmation of ALGS
Text: The ileal bile acid transporter (IBAT) is a regulator of the enterohepatic bile acid circulation (Karpen et al.). Given the central feature of cholestasis in ALGS and the role of IBAT in bile acid homeostasis, IBAT inhibitors may help alleviate symptoms of ALGS. The IBAT inhibitor odevixibat is indicated for treatment of pruritus in patients ≥3 months old with progressive familial intrahepatic cholestasis (PFIC), another pediatric cholestatic liver disease, in the US and for treatment of PFIC in patients aged ≥6 months in the European Union.
The patient was referred to specialist care […]. […] […], a liver biopsy was performed.
During this clinical course, the patient received UDCA (15 mg/kg body weight) and naltrexone (1 mg/kg/day), treatments that were pursued according to German treatment guidelines and following discussions among the care team and with the patient's parents.

[3] = system: patients with Alagille syndrome (ALGS); experiment: ASSERT: global impression of change (CGIC, CaGIC, PGIC) and exit survey; format: in vivo, human; conditions: week 24
Protocol: FIG. 27 is a table showing global impressions of change (GIC) over time. GIC items are assessed on a 7-point scale: 1=very much better; 2=much/moderately better; 3=a little better; 4=no change; 5=a little worse; 6=much/moderately worse; 7=very much worse. Changes based on the GIC were analyzed using a proportional odds model with treatment and baseline GIS scores as covariates considering three categories (better, no change, worse). Better includes “very much better,” “much better,” and “a little better,” and worse includes “a little worse,” “much worse,” and “very much worse.” CaGIC=Caregiver Global Impression of Change. CGIC=Clinician Global Impression of Change. PGIC=Patient Global Impression of Change. Global Impression of Change and Global Impression of Symptom Measures. Patients (≥8 years of age), caregivers, and clinicians completed global impression of change (GIC) measures (patient global impression of change (PGIC), caregiver global impression of change (CaGIC), and clinical global impression of change (CGIC)) and the global impression of symptoms (GIS) measures (patient global impression of symptoms (PGIS), caregiver global impression of symptoms (CaGIS), clinical global impression of symptoms (CGIS)) at randomization (Study Day 1; PGIS only), Week 4, 12, and 24/EOT. The GIC items assessed changes in itch (patient version), scratching (caregiver and clinician versions), and sleep (all versions) since starting the study drug. The GIS items assessed itch (patient version), scratching (caregiver and clinician versions), and sleep (all versions) in the past week. Caregivers and clinicians completed the GIC and GIS for all patients; those patients ≥8 years of age completed the patient version.

CCCCC1(CCCC)CN(c2ccccc2)c2cc(SC)c(OCC(=O)N[C@@H](C(=O)N[C@@H](CC)C(=O)O)c3ccc(O)cc3)cc2S(=O)(=O)N1 [odevixibat, 1,1-dioxo-3,3-dibutyl-5-phenyl-7-methylthio-8-(N-{(R)-α-[N-((S)-1-carboxypropyl)carbamoyl]-4-hydroxybenzyl}carbamoylmethoxy)-2,3,4,5-tetrahydro-1,2,5-benzothiadiazepine]
tolerability ([1]; 120 μg/kg/day over 24 weeks): generally well tolerated | deaths or TEAEs leading to study drug discontinuation ([1]; 24 weeks): No deaths or treatment-emergent adverse events leading to study drug discontinuation; also recorded: no deaths or treatment-emergent adverse events (TEAEs) leading to discontinuation of treatment | incidence of COVID-19 ([1]; 24 weeks): 14.3% | incidence of GI disorders ([1]; 24 weeks): 34% | incidence of abdominal pain (preferred terms abdominal pain and abdominal pain upper) ([1]; 24 weeks): 14% | incidence of bronchitis ([1]; 24 weeks): 8.6% | incidence of infections ([1]; 24 weeks): 51.4% | incidence of liver-related events ([1]; 24 weeks): 11% | incidence of respiratory tract infection ([1]; 24 weeks): 8.6% | incidence of upper respiratory tract infection ([1]; 24 weeks): 8.6% | incidence of SAEs ([1]; 24 weeks, 120 μg/kg/day): 14.3% | incidence of drug-related TEAE diarrhea ([1]; 24 weeks, 120 μg/kg/day): 11% | incidence of drug-related TEAEs ([1]; 24 weeks, 120 μg/kg/day): 23% | incidence of treatment-emergent diarrhea ([1]; 24 weeks, 120 μg/kg/day): 29% | patients with ALT and AST elevations ≥3× baseline without concurrent (within 30 days) elevations in total bilirubin ≥2× baseline ([1]; 24 weeks, n=35): 2 patients | serious infections reported ([1]; 24 weeks, n=35): 3 patients | patients who experienced at least one TEAE ([1]; 26 of 35, 24 weeks, 120 μg/kg/day): 74% | liver decompensation events ([1]; during the study): no cases | effect of dosage change on sBAs ([2]; 30 μg/kg/day, September to October 2021): associated with an increase in sBAs | drop in sBAs ([2]; Apr. 27, 2021 to May 31, 2021, 120 μg/kg/day started May 19, 2021): approximately 90% | sBAs after start of odevixibat ([2]; May 31, 2021, from 700 μmol/L on Apr. 27, 2021, 120 μg/kg/day): 69 µmol/L | bowel movements improved after ([2]; after starting odevixibat): 1 week | pruritus almost entirely disappeared within ([2]; after starting odevixibat): ≤ 2 weeks | pruritus stopped completely after ([2]; after starting odevixibat): 8 months | effect of dosage change on sBAs ([2]; back to 120 μg/kg/day in mid-December): corresponded with a drop in sBAs | adverse events ([2]; in vivo): did not experience any adverse events | sBA levels reached the normal range after ([2]; treatment duration): 8 months | CGIC for scratching, percentage of clinician responses (improved) [3]: 80% | CGIC for sleep, percentage of clinician responses (improved) [3]: 74% | CaGIC for scratching, percentage of caregiver responses (improved pruritus) [3]: 87% and 88% | CaGIC for sleep, percentage of caregiver responses (improved sleep) [3]: 78% | PGIC for itching, percentage of patient responses (improved) ([3]; patients ≥8 years): 80% | PGIC for sleep, percentage of patient responses (improved) ([3]; patients ≥8 years): 70% | odds of improvement in sleep, relative to placebo (CaGIC) ([3]; proportional odds model): nine times higher | odds of improvement versus no change or worsening in scratching, relative to placebo (CaGIC) ([3]; proportional odds model): 15 times
